# Laboratory results: ChEMBL document CHEMBL1909046, “DrugMatrix in vitro pharmacology data”
# Test system: not listed separately
# Assay: DRUGMATRIX: Glutamate, NMDA, Phencyclidine radioligand binding (ligand: [3H] TCP)
# Format: cell membranes, Rattus norvegicus, Wistar, Cerebral cortex, Membrane
# Details: Not Active = under 50% inhibition at 10 µM
SMILES,IC50,Ki
COc1ccccc1N,Not Active,Not Active
Cc1c(O)cccc1C(=O)N[C@@H](CSc1ccccc1)[C@H](O)CN1C[C@H]2CCCC[C@H]2C[C@H]1C(=O)NC(C)(C)C,Not Active,Not Active
CC(C)c1c(C(=O)Nc2ccccc2)c(-c2ccccc2)c(-c2ccc(F)cc2)n1CC[C@@H](O)C[C@@H](O)CC(=O)O [ATORVASTATIN],Not Active,Not Active
COc1cc(OC)c(C(=O)CCCN2CCCC2)c(OC)c1 [BUFLOMEDIL],Not Active,Not Active
Cn1c(=O)c2c(ncn2C)n(C)c1=O [CAFFEINE],Not Active,Not Active
CC(C)NCC(O)c1ccccc1Cl (stereo not given) [CLORPRENALINE],Not Active,Not Active
C[S+](C)[O-] [DIMETHYL SULFOXIDE],Not Active,Not Active
CC(O)(P(=O)(O)O)P(=O)(O)O [ETIDRONIC ACID],Not Active,Not Active
CCOC(=O)c1ncn2c1CN(C)C(=O)c1cc(F)ccc1-2 [FLUMAZENIL],Not Active,Not Active
O=C(O)P(=O)(O)O [FOSCARNET],Not Active,Not Active
O=c1c(-c2ccc(O)cc2)coc2cc(O)cc(O)c12 [GENISTEIN],Not Active,Not Active
C[N+](C)(C)C[C@H](O)CC(=O)[O-] [LEVOCARNITINE],Not Active,Not Active

# Molecular target: Delta-type opioid receptor (Homo sapiens, UniProt P41143); further: in other assays of this panel Not Active means under 50% inhibition at 10 µM
# Format: cell membranes, HEK293, Membrane
# Details: hek293
# Sequence of Delta-type opioid receptor (P41143 whole entry): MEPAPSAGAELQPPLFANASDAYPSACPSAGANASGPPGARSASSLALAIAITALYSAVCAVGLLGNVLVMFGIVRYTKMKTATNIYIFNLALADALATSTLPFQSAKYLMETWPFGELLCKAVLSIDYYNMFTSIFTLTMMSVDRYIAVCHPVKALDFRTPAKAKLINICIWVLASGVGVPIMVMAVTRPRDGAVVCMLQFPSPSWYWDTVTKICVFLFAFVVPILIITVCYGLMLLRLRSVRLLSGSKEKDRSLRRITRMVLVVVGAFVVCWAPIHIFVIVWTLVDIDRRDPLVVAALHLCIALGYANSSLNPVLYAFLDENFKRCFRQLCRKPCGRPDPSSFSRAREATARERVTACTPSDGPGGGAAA
row,SMILES,IC50
1,COc1ccccc1N,Not Active
2,CC(C)c1c(C(=O)Nc2ccccc2)c(-c2ccccc2)c(-c2ccc(F)cc2)n1CC[C@@H](O)C[C@@H](O)CC(=O)O [ATORVASTATIN],Not Active
3,COc1cc(OC)c(C(=O)CCCN2CCCC2)c(OC)c1 [BUFLOMEDIL],Not Active
4,Cn1c(=O)c2c(ncn2C)n(C)c1=O [CAFFEINE],Not Active
5,CC(C)NCC(O)c1ccccc1Cl (stereo not given) [CLORPRENALINE],Not Active
6,C[S+](C)[O-] [DIMETHYL SULFOXIDE],Not Active
7,CC(O)(P(=O)(O)O)P(=O)(O)O [ETIDRONIC ACID],Not Active
8,CCOC(=O)c1ncn2c1CN(C)C(=O)c1cc(F)ccc1-2 [FLUMAZENIL],Not Active
9,O=C(O)P(=O)(O)O [FOSCARNET],Not Active
10,O=c1c(-c2ccc(O)cc2)coc2cc(O)cc(O)c12 [GENISTEIN],Not Active
11,C[N+](C)(C)C[C@H](O)CC(=O)[O-] [LEVOCARNITINE],Not Active

# Same assay, conditions: read-out: IC50
row,SMILES,IC50 [µM]
1,Cc1c(O)cccc1C(=O)N[C@@H](CSc1ccccc1)[C@H](O)CN1C[C@H]2CCCC[C@H]2C[C@H]1C(=O)NC(C)(C)C,66.1

# Same assay, conditions: read-out: Ki
row,SMILES,Ki [µM]
1,Cc1c(O)cccc1C(=O)N[C@@H](CSc1ccccc1)[C@H](O)CN1C[C@H]2CCCC[C@H]2C[C@H]1C(=O)NC(C)(C)C,23.3

# Test system: not listed separately
# Assay: DRUGMATRIX: Leukotriene, BLT (LTB4) radioligand binding (ligand: [3H]LTB4)
# Format: cell membranes, Membrane
# Details: u-937; Not Active = under 50% inhibition at 10 µM
SMILES,IC50,Ki
COc1ccccc1N,Not Active,Not Active
Cc1c(O)cccc1C(=O)N[C@@H](CSc1ccccc1)[C@H](O)CN1C[C@H]2CCCC[C@H]2C[C@H]1C(=O)NC(C)(C)C,Not Active,Not Active
CC(C)c1c(C(=O)Nc2ccccc2)c(-c2ccccc2)c(-c2ccc(F)cc2)n1CC[C@@H](O)C[C@@H](O)CC(=O)O [ATORVASTATIN],Not Active,Not Active
COc1cc(OC)c(C(=O)CCCN2CCCC2)c(OC)c1 [BUFLOMEDIL],Not Active,Not Active
Cn1c(=O)c2c(ncn2C)n(C)c1=O [CAFFEINE],Not Active,Not Active
CC(C)NCC(O)c1ccccc1Cl (stereo not given) [CLORPRENALINE],Not Active,Not Active
C[S+](C)[O-] [DIMETHYL SULFOXIDE],Not Active,Not Active
CC(O)(P(=O)(O)O)P(=O)(O)O [ETIDRONIC ACID],Not Active,Not Active
CCOC(=O)c1ncn2c1CN(C)C(=O)c1cc(F)ccc1-2 [FLUMAZENIL],Not Active,Not Active
O=C(O)P(=O)(O)O [FOSCARNET],Not Active,Not Active
O=c1c(-c2ccc(O)cc2)coc2cc(O)cc(O)c12 [GENISTEIN],Not Active,Not Active
C[N+](C)(C)C[C@H](O)CC(=O)[O-] [LEVOCARNITINE],Not Active,Not Active

# Molecular target: T1, Angiotensin-converting enzyme (Oryctolagus cuniculus, UniProt P12822);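 further: enzymatic inhibition of angiotensin-converting enzyme measured with FAPGG as the substrate; in other assays of this panel Not Active means under 50% inhibition at 10 µM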
# T1 sequence (P12822 whole entry): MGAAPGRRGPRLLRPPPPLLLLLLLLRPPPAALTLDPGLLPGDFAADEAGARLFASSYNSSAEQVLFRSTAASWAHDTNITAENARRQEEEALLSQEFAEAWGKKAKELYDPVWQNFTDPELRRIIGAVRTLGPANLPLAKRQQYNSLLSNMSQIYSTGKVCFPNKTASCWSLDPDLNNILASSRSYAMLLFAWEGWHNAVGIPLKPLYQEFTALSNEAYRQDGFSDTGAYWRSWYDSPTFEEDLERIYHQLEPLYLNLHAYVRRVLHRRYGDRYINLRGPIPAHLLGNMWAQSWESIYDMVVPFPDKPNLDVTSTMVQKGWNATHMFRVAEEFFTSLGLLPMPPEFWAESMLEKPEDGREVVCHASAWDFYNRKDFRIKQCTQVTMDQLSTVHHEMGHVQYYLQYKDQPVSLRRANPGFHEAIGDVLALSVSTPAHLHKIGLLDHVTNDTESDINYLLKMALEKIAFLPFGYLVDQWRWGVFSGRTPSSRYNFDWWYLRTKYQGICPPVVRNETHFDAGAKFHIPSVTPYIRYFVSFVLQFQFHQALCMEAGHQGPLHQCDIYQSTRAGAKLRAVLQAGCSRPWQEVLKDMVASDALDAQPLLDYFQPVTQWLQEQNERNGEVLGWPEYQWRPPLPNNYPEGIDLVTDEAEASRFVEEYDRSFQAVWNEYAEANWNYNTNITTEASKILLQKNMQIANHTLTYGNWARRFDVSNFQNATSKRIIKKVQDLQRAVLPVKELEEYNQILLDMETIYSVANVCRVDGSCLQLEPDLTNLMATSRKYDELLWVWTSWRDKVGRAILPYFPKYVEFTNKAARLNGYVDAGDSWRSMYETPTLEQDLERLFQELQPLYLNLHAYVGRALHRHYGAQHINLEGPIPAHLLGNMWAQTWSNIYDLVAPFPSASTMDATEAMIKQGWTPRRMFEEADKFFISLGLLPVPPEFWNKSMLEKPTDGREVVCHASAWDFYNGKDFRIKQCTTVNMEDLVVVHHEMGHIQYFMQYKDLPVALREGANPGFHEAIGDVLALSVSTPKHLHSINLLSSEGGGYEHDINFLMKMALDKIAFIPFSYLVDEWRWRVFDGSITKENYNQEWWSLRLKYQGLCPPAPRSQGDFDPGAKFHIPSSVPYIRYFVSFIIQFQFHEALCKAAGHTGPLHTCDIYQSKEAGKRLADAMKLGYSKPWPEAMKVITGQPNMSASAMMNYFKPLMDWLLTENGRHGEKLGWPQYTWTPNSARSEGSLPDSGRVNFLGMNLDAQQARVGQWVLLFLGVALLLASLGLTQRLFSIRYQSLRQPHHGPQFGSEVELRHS
# Format: tissue-based, Lung
# Details: not given
row,SMILES,IC50
1,COc1ccccc1N,Not Active
2,Cc1c(O)cccc1C(=O)N[C@@H](CSc1ccccc1)[C@H](O)CN1C[C@H]2CCCC[C@H]2C[C@H]1C(=O)NC(C)(C)C,Not Active
3,CC(C)c1c(C(=O)Nc2ccccc2)c(-c2ccccc2)c(-c2ccc(F)cc2)n1CC[C@@H](O)C[C@@H](O)CC(=O)O [ATORVASTATIN],Not Active
4,COc1cc(OC)c(C(=O)CCCN2CCCC2)c(OC)c1 [BUFLOMEDIL],Not Active
5,Cn1c(=O)c2c(ncn2C)n(C)c1=O [CAFFEINE],Not Active
6,CC(C)NCC(O)c1ccccc1Cl (stereo not given) [CLORPRENALINE],Not Active
7,C[S+](C)[O-] [DIMETHYL SULFOXIDE],Not Active
8,CC(O)(P(=O)(O)O)P(=O)(O)O [ETIDRONIC ACID],Not Active
9,CCOC(=O)c1ncn2c1CN(C)C(=O)c1cc(F)ccc1-2 [FLUMAZENIL],Not Active
10,O=C(O)P(=O)(O)O [FOSCARNET],Not Active
11,O=c1c(-c2ccc(O)cc2)coc2cc(O)cc(O)c12 [GENISTEIN],Not Active
12,C[N+](C)(C)C[C@H](O)CC(=O)[O-] [LEVOCARNITINE],Not Active

# Molecular target: Cytochrome P450 3A4 (Homo sapiens, UniProt P08684); further: in other assays of this panel Not Active means under 50% inhibition at 10 µM
# Details: bti-tn-5b1-4
# Sequence of Cytochrome P450 3A4 (P08684 whole entry): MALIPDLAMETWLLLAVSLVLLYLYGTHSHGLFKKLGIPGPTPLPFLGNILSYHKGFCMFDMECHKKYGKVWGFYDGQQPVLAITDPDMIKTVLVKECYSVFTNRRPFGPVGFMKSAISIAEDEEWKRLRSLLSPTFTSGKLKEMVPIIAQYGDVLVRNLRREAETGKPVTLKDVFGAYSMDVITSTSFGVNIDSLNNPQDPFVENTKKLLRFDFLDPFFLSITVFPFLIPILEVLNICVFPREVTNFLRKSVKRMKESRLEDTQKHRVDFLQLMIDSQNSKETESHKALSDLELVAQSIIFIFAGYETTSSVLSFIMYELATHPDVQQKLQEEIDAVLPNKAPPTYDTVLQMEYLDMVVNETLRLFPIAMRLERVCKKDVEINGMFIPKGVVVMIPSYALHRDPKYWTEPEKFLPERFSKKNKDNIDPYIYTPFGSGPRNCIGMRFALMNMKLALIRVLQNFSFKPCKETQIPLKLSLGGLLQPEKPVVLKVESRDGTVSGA
SMILES,IC50,Ki
COc1ccccc1N,Not Active,Not Active
Cn1c(=O)c2c(ncn2C)n(C)c1=O [CAFFEINE],Not Active,Not Active
CC(C)NCC(O)c1ccccc1Cl (stereo not given) [CLORPRENALINE],Not Active,Not Active
C[S+](C)[O-] [DIMETHYL SULFOXIDE],Not Active,Not Active
CC(O)(P(=O)(O)O)P(=O)(O)O [ETIDRONIC ACID],Not Active,Not Active
CCOC(=O)c1ncn2c1CN(C)C(=O)c1cc(F)ccc1-2 [FLUMAZENIL],Not Active,Not Active
O=C(O)P(=O)(O)O [FOSCARNET],Not Active,Not Active
O=c1c(-c2ccc(O)cc2)coc2cc(O)cc(O)c12 [GENISTEIN],Not Active,Not Active
C[N+](C)(C)C[C@H](O)CC(=O)[O-] [LEVOCARNITINE],Not Active,Not Active

# Test system: not listed separately
# Assay: DRUGMATRIX: Serotonin (5-Hydroxytryptamine) 5-HT3 radioligand binding (ligand: [3H] GR-65630)
# Format: cell membranes, Membrane
# Details: hek293; Not Active = under 50% inhibition at 10 µM
SMILES,IC50,Ki
COc1ccccc1N,Not Active,Not Active
Cc1c(O)cccc1C(=O)N[C@@H](CSc1ccccc1)[C@H](O)CN1C[C@H]2CCCC[C@H]2C[C@H]1C(=O)NC(C)(C)C,Not Active,Not Active
CC(C)c1c(C(=O)Nc2ccccc2)c(-c2ccccc2)c(-c2ccc(F)cc2)n1CC[C@@H](O)C[C@@H](O)CC(=O)O [ATORVASTATIN],Not Active,Not Active
COc1cc(OC)c(C(=O)CCCN2CCCC2)c(OC)c1 [BUFLOMEDIL],Not Active,Not Active
Cn1c(=O)c2c(ncn2C)n(C)c1=O [CAFFEINE],Not Active,Not Active
CC(C)NCC(O)c1ccccc1Cl (stereo not given) [CLORPRENALINE],Not Active,Not Active
C[S+](C)[O-] [DIMETHYL SULFOXIDE],Not Active,Not Active
CC(O)(P(=O)(O)O)P(=O)(O)O [ETIDRONIC ACID],Not Active,Not Active
CCOC(=O)c1ncn2c1CN(C)C(=O)c1cc(F)ccc1-2 [FLUMAZENIL],Not Active,Not Active
O=C(O)P(=O)(O)O [FOSCARNET],Not Active,Not Active
O=c1c(-c2ccc(O)cc2)coc2cc(O)cc(O)c12 [GENISTEIN],Not Active,Not Active
C[N+](C)(C)C[C@H](O)CC(=O)[O-] [LEVOCARNITINE],Not Active,Not Active
